Consider 12 compounds from patent publication US20170334934A1, “Macrocyclic picolinamides as fungicides” (DOW AGROSCIENCES LLC, priority 2014, published 2017).

The test system of series [1] is Mycosphaerella graminicola; Anamorph: Zymoseptoria tritici. In words: Fungicidal activity: Leaf Blotch of Wheat (SEPTTR), wheat seedlings. The settings on record: wheat; for pest or weed control at 121.5 g/ha: Low Volume (121.5 g/H); for pest or weed control at 100 µg/mL: High Volume (100 ppm). In kind it is in vivo. On the procedure: Example A: Evaluation of Fungicidal Activity: Leaf Blotch of Wheat (Mycosphaerella graminicola; Anamorph: Zymoseptoria tritici; Bayer Code […]) Technical grades of materials were dissolved in acetone, which were then mixed with nine volumes of water containing 110 ppm Triton X-100. The fungicide solutions were applied onto wheat seedlings using an automated booth sprayer to run-off. All sprayed plants were allowed to air dry prior to further handling. All fungicides were evaluated using the aforementioned method for their activity vs. all target diseases, unless stated otherwise. Wheat leaf blotch and brown rust activity were also evaluated using track spray applications, in which case the fungicides were formulated as EC formulations, containing 0.1% Trycol 5941 in the spray solutions. Wheat plants (variety Yuma) were grown from seed in a greenhouse in 50% mineral soil/50% soil-less Metro mix until the first leaf was fully emerged, with 7-10 seedlings per pot. These plants were inoculated with an aqueous spore suspension of Zymoseptoria tritici either prior to or after fungicide treatments. After inoculation the plants were kept in 100% relative humidity (one day in a dark dew chamber followed by two to three days in a lighted dew chamber at 20° C.) to permit spores to germinate and infect the leaf. The plants were then transferred to a greenhouse set at 20° C. for disease to develop. When disease symptoms were fully expressed on the 1st leaves of untreated plants, infection levels were assessed on a scale of 0 to 100 percent disease severity. Percent disease control was calculated using the ratio of disease severity on treated plants relative to untreated plants.

In another series the test system is Puccinia triticina. In words: Fungicidal activity: Wheat Brown Rust (PUCCRT), wheat seedlings. In kind it is in vivo. The settings on record: for pest or weed control at 121.5 g/ha: Low Volume (121.5 g/H); for pest or weed control at 100 µg/mL: High Volume (100 ppm). On the procedure: Technical grades of materials were dissolved in acetone, which were then mixed with nine volumes of water containing 110 ppm Triton X-100. The fungicide solutions were applied onto wheat seedlings using an automated booth sprayer to run-off. All sprayed plants were allowed to air dry prior to further handling. All fungicides were evaluated using the aforementioned method for their activity vs. all target diseases, unless stated otherwise. Wheat leaf blotch and brown rust activity were also evaluated using track spray applications, in which case the fungicides were formulated as EC formulations, containing 0.1% Trycol 5941 in the spray solutions. Wheat plants (variety Yuma) were grown from seed in a greenhouse in 50% mineral soil/50% soil-less Metro mix until the first leaf was fully emerged, with 7-10 seedlings per pot. These plants were inoculated with an aqueous spore suspension of Zymoseptoria tritici either prior to or after fungicide treatments. After inoculation the plants were kept in 100% relative humidity (one day in a dark dew chamber followed by two to three days in a lighted dew chamber at 20° C.) to permit spores to germinate and infect the leaf. The plants were then transferred to a greenhouse set at 20° C. for disease to develop. When disease symptoms were fully expressed on the 1st leaves of untreated plants, infection levels were assessed on a scale of 0 to 100 percent disease severity. Percent disease control was calculated using the ratio of disease severity on treated plants relative to untreated plants. Example B: Evaluation of Fungicidal Activity: Wheat Brown Rust (Puccinia triticina; Synonym: Puccinia recondita f. sp. tritici; Bayer Code PUCCRT) Wheat plants (variety Yuma) were grown from seed in a greenhouse in 50% mineral soil/50% soil-less Metro mix until the first leaf was fully emerged, with 7-10 seedlings per pot. These plants were inoculated with an aqueous spore suspension of Puccinia triticina either prior to or after fungicide treatments. After inoculation the plants were kept in a dark dew room at 22° C. with 100% relative humidity overnight to permit spores to germinate and infect the leaf. The plants were then transferred to a greenhouse set at 24° C. for disease to develop. Fungicide formulation, application and disease assessment followed the procedures as described in the Example A.

[2] abbreviates: 24 h, 1 Day Protectant, read-out: SEPTTR disease control rating, 1DP.
[3] abbreviates: 72 h, 3 Day Curative, read-out: SEPTTR disease control rating, 3DC.
Where [4] appears, read: 24 h, 1 Day Protectant, read-out: PUCCRT disease control rating, 1DP.
Setting [5] is: 72 h, 3 Day Curative, read-out: PUCCRT disease control rating, 3DC.

Like-named read-outs stand apart in the source and are kept apart here. A value given as a limit tells only on which side of the number the result lay.

Consider `C[C@@H]1OC(=O)[C@@H](NC(=O)OC(C)(C)C)CCOC[C@H]1O` [Compound 24, tert-butyl ((3R,4S,7S)-3-hydroxy-4-methyl-6-oxo-1,5-dioxonan-7-yl)carbamate], for which the melting point is 148 to 152 °C.
For the compound `COc1ccnc(C(=O)N[C@H]2CCOC[C@@H](OCCCC(F)(F)F)[C@H](C)OC2=O)c1OC(C)=O` [Compound 101], the melting point was 43 to 48 °C. For the same compound, the pest or weed control at 121.5 g/ha in series [1] (setting [2]) was less than 70%. Besides, the pest or weed control at 121.5 g/ha in series [1] (setting [3]) was less than 70%. The pest or weed control at 121.5 g/ha in the series on Puccinia triticina (setting [4]) is more than 70%. The pest or weed control at 121.5 g/ha in the series with Puccinia triticina (setting [5]) was more than 70%.
`C[C@@H]1OC(=O)[C@@H](NC(=O)OC(C)(C)C)CCOC[C@H]1OCCCC(F)(F)F` [Compound 30] displayed a melting point of 80 to 83 °C.
As for `CC(C)CO[C@@H]1COCC[C@H](NC(=O)OC(C)(C)C)C(=O)O[C@H]1C` [Compound 29], the melting point is 99 to 103 °C.
Regarding `C=C(C)CO[C@H]1[C@H](C)OC(=O)[C@@H](NC(=O)c2nccc(OC)c2O)CCO[C@@H]1CC` [Compound 61], the pest or weed control at 100 µg/mL is less than 70% in series [1] (setting [2]), more than 70% in series [1] (setting [3]), more than 70% in the series on Puccinia triticina (setting [4]) and more than 70% in the series on Puccinia triticina (setting [5]).
In the case of `COc1ccnc(C(=O)N[C@H]2CCO[C@H](Cc3ccc(F)cc3)[C@@H](OCC(C)C)[C@H](C)OC2=O)c1OC(C)=O` [Compound 77], the pest or weed control at 121.5 g/ha (in series [1] (setting [2]); in series [1] (setting [3]); with Puccinia triticina (setting [4]); in the series on Puccinia triticina (setting [5])) was more than 70% each time.
On to `COc1ccnc(C(=O)N[C@H]2CCO[C@H](Cc3ccccc3)[C@@H](OCC(C)C)[C@H](C)OC2=O)c1OC(C)=O` [Compound 71], for which the pest or weed control at 121.5 g/ha (in series [1] (setting [2]); in series [1] (setting [3]); with Puccinia triticina (setting [4]); in the series with Puccinia triticina (setting [5])) was more than 70% in each case.
In the case of `COc1ccnc(C(=O)N[C@H]2CCO[C@H](Cc3ccc(F)cc3)[C@@H](OC(=O)C(C)C)[C@H](C)OC2=O)c1OCOC(C)=O` [Compound 74], the pest or weed control at 121.5 g/ha (in series [1] (setting [2]); in series [1] (setting [3]); in the series on Puccinia triticina (setting [4]); in the series with Puccinia triticina (setting [5])) was more than 70% in each case.
On to `COc1ccnc(C(=O)N[C@H]2CCO[C@H](Cc3ccccc3)[C@@H](Oc3ccccc3)[C@H](C)OC2=O)c1OC(C)=O` [Compound 83], for which the pest or weed control at 121.5 g/ha (in series [1] (setting [2]); in series [1] (setting [3]); in the series on Puccinia triticina (setting [4]); in the series on Puccinia triticina (setting [5])) was more than 70% each time.
As to `C=C(C)CO[C@H]1[C@H](C)OC(=O)[C@@H](NC(=O)c2nccc(OC)c2OCOC(C)=O)CCO[C@@H]1CC` [Compound 88], the pest or weed control at 121.5 g/ha in series [1] (setting [2]) was less than 70%; in series [1] (setting [3]) it was less than 70%; in the series on Puccinia triticina (setting [4]) it was more than 70%; in the series on Puccinia triticina (setting [5]), more than 70%.
As to `COc1ccnc(C(=O)N[C@H]2CCO[C@H](Cc3ccccc3)[C@@H](OCC(C)C)[C@H](C)OC2=O)c1O` [Compound 51], the pest or weed control at 100 µg/mL is more than 70% in series [1] (setting [2]), less than 70% in series [1] (setting [3]), more than 70% in the series on Puccinia triticina (setting [4]) and more than 70% in the series with Puccinia triticina (setting [5]).
For the compound `CC[C@H]1OCC[C@H](NC(=O)c2nccc(OC)c2O)C(=O)O[C@@H](C)[C@@H]1Oc1ccc(F)cc1` [Compound 64], the pest or weed control at 100 µg/mL (in series [1] (setting [2]); in series [1] (setting [3]); with Puccinia triticina (setting [4]); with Puccinia triticina (setting [5])) was more than 70% each time.
